Patent US20030118653A1, “Quick dissolving oral mucosal drug delivery device with moisture barrier coating” (Lavipharm Laboratories Inc., priority 2001, published 2003)

Assay: Bioavailability of sildenafil from film with water soluble inert filler
Type: in vivo
Settings: incorporated in a film with water soluble inert filler xylitol
Excerpt: A further parameter affecting the uptake of an active agent or combination of active agents from the quick dissolving oral mucosal drug delivery devices of the present invention is the manner in which the active agent or combination of active agents is dispersed in the delivery device. For example, the active agent or combination of active agents may be dispersed as colloidal particles or be microencapsulated within the delivery device or alternatively may be mixed throughout the delivery device as a reagent during casting. In another example, the active agent can form a solid dispersion with a water soluble inert filler for purposes of increasing the solubility of the active agent when released from the inner layer thereby enhancing bioavailability of the active agent. […] In another example, a bitter active agent can form saliva insoluble complex with water insoluble polymers for the purpose of taste masking.

SMILES: CCCc1nn(C)c2c(=O)[nH]c(-c3cc(S(=O)(=O)N4CCN(C)CC4)ccc3OCC)nc12 [sildenafil]
- bioavailability: enhance the bioavailability
